Test results taken from ChEMBL document CHEMBL6092192 (J Med Chem, 2024).

Experiment: Toxicity in BALB/c nude mouse xenografted with […] CT26/TAXOL cells assessed as change in body weight at 100 mg/kg/day, IG measured upto 14 days in presence of paclitaxel/anti-PD-1
Type: organism-based
Conditions: in vivo, po, 336 h, time < 14 day

Q: For `O=c1c2c([nH]c3nc(SCc4nc5ccccc5s4)nn13)CCC2`, which Activity is on record?
A: Its Activity is “Non-toxic”.
